In patent US20080286388A1, “Pharmaceutical Composition and Non Dependence Coffee Comprising Edible Carboxylic Acid and/or Its Acid Salts and Coffeine” (priority 2004, published 2008):
“And” between values parts separate entries of the source, which are not always exact repeats. Equal values may be shown once. Where a name gives a salt, the structure may show the parent alone. Read-outs that look alike come from different tables or passages of the source.

Key:
[1] = tested on: mouse's leaching cell solution (abdominal cavity cells), histamine release by 48/80 compound; assay: Drug inhibiting effect on histamine leaching from mouse abdominal cavity cells treated with 48/80 compound; format: cell-based; details: Mus musculus, testing drug 100 μg/ml
Description: This is a comparative testing for drug depressing effect on the amount of leaching histamines when is treated with 48/80 (Sigma, St. MO, USA) compound.
(1). Preparation of Leaching Cell Solution from Mouse Body.
A mouse is killed and bloodletting. Then 10 ml of Locke's solution containing 0.1% bovine serum protein is injected into its abdominal cavity. After abdominal cavity being light massaged, the cavity is cut and the Locke's solution is removed. Cavity is washed with another 5 ml of Locke's solution, and this washed solution is added to the latter one. This combined solution is centrifuged at 600 rpm for 5 minutes. The sediments are washed with 5 ml of cool Locke's solution. Adding 3 ml of cold Locke's solution to the washed sediments, then a leached cell solution of abdominal cavity is obtained. (The composition of Locke's solution is: NaCL […], KCL 0.2%, CaCL2 0.15%, glucose 1.0%, in w/v, and the rest distillated water.)
(2). Drug Inhibiting Effect on the Amount of Leaching Histamines when Treated with 48/80 Compound.
1.0 ml of each of those solutions in last term is mixed with 0.3 ml of mouse's leaching cell solution and 0.5 ml of Locke's solution. This mixture is cultivated at 37° C. for 5 minutes. Then adding 0.2 ml of Locke's solution of 48/80 compound (1 mg/100 ml) and cultivated at 37° C. for 10 minutes. Then the reaction is stopped by cooling, and centrifuged at 2,500 rpm for 10 minutes. 1.7 ml of decanted solution and 0.3 ml of sediments are obtained.
0.1 ml of water and 0.2 ml of 100% trichloroacetic acid are added to the decanted solution. 1.5 ml of Locke's solution and 0.2 ml of 100% trichloroacetic acid are added to the sediments washed solution. They are cultivated at room temperature for 30 minutes. After cultivation, the mixtures are centrifuged at 3,000 rpm for 15 minutes, respectively. 0.35 ml of each of the former two solutions is sampled. In each sample, 1.65 ml of water, 0.4 ml of 1N NaOH and 0.1 ml of 0.5% OPT (o-phthalic aldehyde) in methanol are added and cultivated at room temperature for 4 minutes. The reaction is stopped by adding 0.2 ml of 2M citric acid. And finally, determine the amount of released histamines in the tested solution by fluorescence method. By the analysis, results of the inhibiting rate of histamines could be calculated.
Locke's solution is instead of each drug in control group, and instead of both drug and 48/80 compound solution in blank group.
The histamine releasing rate (A) can be calculated by following equation. […] Where (Hs) is the total amount of histamine in the decanted solution, and (Hr) is the total amount of histamine in the sediment. (A)=[(Hs)/{(Hs)+(Hr)}]×100%. Then the inhibiting rate is:
=100−[(A−A in blank group)/(A−A in control group)]×100%.

mice = assay: Anti-delayed type allergy reaction, oxazolone ear inflammation; format: in vivo, mouse; details: drug 2.0 w/v % in oxazolone acetone solution, 10 μl on right ear, 24 hr; for Inhibiting rate (%) (adding 0.1 w/v % of drug): with 0.1 w/v % of caffeine; for Inhibiting rate (%) (non-caffeine added): without caffeine
Description: The weights of testing mice are ranging from 20 g to 30 g. They are coated with 0.1 ml of oxazolone alcohol solution (0.5 w/v %) on the hair cleaned part of abdomen. […] After 24 hr, the mouse is killed by ether and punched a circle area of a diameter of 5.5 mm on both right and left ears in corresponding part by a puncher machine (portions of drug coated and the blank). The punched portions are weighed and the inflammation rates calculated. The control group are coated only with the oxazolone acetone solution (0.5 w/v %). The inflammation inhibiting rates of each drug are calculated by following equation: Inflammation inhibiting rate (%)=[(weight of drug-coated right ear)−(weight of non-drug-coated left ear)]×100%/(weight of non-drug-coated left ear)

[2] = tested on: patients with toothache caused by a crowned tooth swelling; assay: Analgesia and suppuration for tooth; format: in vivo, human; details: 2 g every two hours
Source text: It is not a best method in treating a toothache caused by a crowned tooth swelling that the ill tooth must be extracted or the crown must be destructed first. […] About 8 and 10 days were needed to suppurate and recovery completely when they could chew again. This method can keep the ill tooth without extraction.

person = assay: Tests for increase the ability of learning and memory; format: in vivo, human; details: Homo sapiens, po; three pieces of 600 mg, average of four tests before and after ingesting; read-out: Increase rate (%) of memory ability
Description: A person administrates see a random series of 100 numbers, typed by PC, for 10 minutes and memory it. Then recite and write down the memorized number series. To check the recited series with the original one to see how many numbers are correct. In each testing at least has 10 minutes interval, and repeat four times. […] Each kind of drugs testing is done in half day, morning or afternoon only. The testing results were counted by one correct number for one point. Make the average value of four times testing of before and after drug ingesting, respectively. The increase of learning or memory ability is calculated by following equation and listed in Table 14: Rate of increase of memory ability=[(average value of four time testing before ingesting drug)−(average value of four times testing after ingesting drug)]×100%/(average value of four time testing before ingesting drug)

[3] = adding 5% of coffee extract, read-out: inhibiting rate (%) (adding 5% of coffee extract)
[4] = non adding coffee extract, read-out: Inhibiting rate (%) (non adding coffee extract)

SMILES	inhibition at 100 µg/mL [1, 3]	inhibition at 100 µg/mL [1, 4]	Inhibiting rate (%) (adding 0.1 w/v % of drug) (mice)	Inhibiting rate (%) (non-caffeine added) (mice)	Days needed to suppurate and recovery completely ([2]; one value per patient)	Toothache pain ([2]; two patients)	change in vivo at 1800 mg (person)
O=C(O)CC(O)C(=O)O (stereo not shown) [Malic acid]	100%	100%	100%	96%	About 8 days and ~10 days	pains were killed	315%
CN(C)CCOC(c1ccccc1)c1ccccc1 [Diphenhydramine hydrochloride, reference compound]	50.4%	32.1%	20%	20%	–	–	–
CC(O)C(=O)O (stereo not shown) [Lactic acid]	100%	100%	98%	97%	–	–	280%
O=C(O)/C=C/C(=O)O [Fumaric acid]	100%	100%	100%	98%	–	–	300%
O=C(O)C(O)C(O)C(=O)O (stereo not shown) [Tartaric acid]	100%	100%	99%	97%	–	–	305%
O=C(O)CC(O)(CC(=O)O)C(=O)O [Citric acid]	100%	100%	100%	100%	–	–	360%
O=C(O)C=C(CC(=O)O)C(=O)O [aconitic acid]	40%	100%	–	–	–	–	315%
CCCCCCC(O)C(=O)O (stereo not drawn) [α-hydroxy octanoic acid]	100%	100%	–	–	–	–	300%
